For this experiment, the target named is human PDE10A (Homo sapiens (Human), UniProt Q9Y233). Briefly: human PDE10A full length assay ([3H]-cGMP SPA). The experiment is classed as biochemical. The note with it: full length PDE10A enzyme, 50 nM cGMP + 50 nM [3H]-cGMP, 20 minutes at room temperature; read-out: PDE10A inhibition IC50. As for the experimental part:
The human PDE10A full length assay was performed in 96-well micro titer plates. The reaction mixture of 50 μl contained 20 mM HEPES pH=7.5/10 mM MgCl2/0.05 mg/ml BSA (Sigma cat. #A-7906), 50 nM cGMP (Sigma, cat. #G6129) and 50 nM [3H]-cGMP (GE Healthcare, cat. #TRK392 S.A. 13.2 Ci/mmol), 3.75 ng/well PDE10A enzyme (Enzo Life Science, Lausen, Switzerland cat #SE-534) with or without a specific test compound. A range of concentrations of the potential inhibitor was used to generate data for calculating the concentration of inhibitor resulting in 50% of the effect (e.g. IC50, the concentration of the competitor inhibiting PDE10A activity by 50%). Non-specific activity was tested without the enzyme. The reaction was initiated by the addition of the substrate solution (cGMP and [3H]-cGMP) and allowed to progress for 20 minutes at room temperature. The reaction was terminated by adding 25 μl of YSi-SPA scintillation beads (GE Healthcare, cat. # RPNQ0150) in 18 mM zinc sulphate solution (stop reagent). After 1 h under shaking, the plate was centrifuged one minute at 170 g to allow beads to settle. Afterwards, radioactive counts were measured on a Perkin Elmer TopCount Scintillation plate reader.

pIC50: −log10 of the molar value.

For orientation: pIC50 means the IC50 on a negative log10 scale, so that one unit is a factor of ten.

Sequence of human PDE10A (Q9Y233 other isoform, or with tags, fused parts or gaps): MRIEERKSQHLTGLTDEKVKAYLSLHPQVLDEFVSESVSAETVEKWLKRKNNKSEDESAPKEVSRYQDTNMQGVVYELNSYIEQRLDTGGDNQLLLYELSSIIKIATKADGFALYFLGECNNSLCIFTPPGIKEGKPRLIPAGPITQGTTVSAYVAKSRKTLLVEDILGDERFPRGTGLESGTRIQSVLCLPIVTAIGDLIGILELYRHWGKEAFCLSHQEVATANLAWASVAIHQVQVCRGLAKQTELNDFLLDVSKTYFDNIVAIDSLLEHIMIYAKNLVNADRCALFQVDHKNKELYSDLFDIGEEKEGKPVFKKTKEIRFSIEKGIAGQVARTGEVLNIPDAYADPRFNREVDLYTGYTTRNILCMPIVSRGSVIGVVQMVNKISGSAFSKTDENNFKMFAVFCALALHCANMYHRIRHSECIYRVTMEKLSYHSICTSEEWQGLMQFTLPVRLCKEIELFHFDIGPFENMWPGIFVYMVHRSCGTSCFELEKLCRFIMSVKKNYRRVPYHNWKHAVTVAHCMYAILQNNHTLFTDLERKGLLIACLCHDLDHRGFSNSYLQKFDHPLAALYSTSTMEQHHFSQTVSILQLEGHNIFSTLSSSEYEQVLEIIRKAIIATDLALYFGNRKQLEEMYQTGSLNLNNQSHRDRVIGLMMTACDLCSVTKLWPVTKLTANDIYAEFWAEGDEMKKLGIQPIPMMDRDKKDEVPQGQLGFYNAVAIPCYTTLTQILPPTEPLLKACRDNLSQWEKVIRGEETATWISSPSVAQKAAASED

With `Cc1cnc(C)n2nc(CCc3nc(N4CCCC4=O)cn3C)nc12` [Example 1, 1-(2-(2-(5,8-dimethyl-[1,2,4]triazolo[1,5-c]pyrimidin-2-yl)ethyl)-1-methyl-1H-imidazol-4-yl)pyrrolidin-2-one], the pIC50 is 7.41. `Cc1ncc(C)n2nc(/C=C/c3nc(N4CCCC4=O)cn3-c3ccccc3)nc12` [Example 3]: the pIC50 was 8.02. The same measure for `Cc1nc(C#Cc2nc(N3CCCC3=O)cn2C)nc2c(C)cccc12` [Example 9, 1-(2-((4,8-dimethylquinazolin-2-yl)ethynyl)-1-methyl-1H-imidazol-4-yl)pyrrolidin-2-one]: 8.34; for `Cc1ncc(C)n2nc(/C=C/c3nc(N4CCCC4=O)cn3C)nc12` [Example 10, 1-{2-[(E)-2-{4,7-dimethyl-[1,2,4]triazolo[1,5-a]pyrazin-2-yl}ethenyl]-1-methyl-1H-imidazol-4-yl}pyrrolidin-2-one]: 7.26. The same measure for `Cc1ncc(C)n2nc(CCc3nc(-n4ccccc4=O)cn3C)nc12` [Example 5, 1-(2-(2-(5,8-dimethyl-[1,2,4]triazolo[1,5-a]pyrazin-2-yl)ethyl)-1-methyl-1H-imidazol-4-yl)pyridin-2(1H)-one]: 6.71; for “1-{2-[(E)-2-{4,7-Dimethyl-[1,2,4]triazolo[1,5-a]pyrazin-2-yl}ethenyl]-1-phenyl-1H-imidazol-4-yl}pyrrolidin-2-one [Example 20]”: 7.71. The same measure for `Cc1cnc(C)n2nc(CCc3nc(N4CCCC4=O)cn3-c3ccccc3)nc12` [Example 17, 1-[2-[2-(5,8-dimethyl-[1,2,4]triazolo[1,5-c]pyrimidin-2-yl)ethyl]-1-phenyl-imidazol-4-yl]pyrrolidin-2-one]: 8.49; for `Cc1c(C(F)(F)F)nc2ccc(CCc3nc(N4CCCC4=O)cn3-c3ccccc3)nn12` [Example 23, 1-(2-{2-[3-Methyl-2-(trifluoromethyl)imidazo[1,2-b]pyridazin-6-yl]ethyl}-1-phenyl-1H-imidazol-4yl)pyrrolidin-2-one]: 8.51.

`CNC(=O)c1cc(CCc2nc(N3CCCC3=O)cn2-c2ccccc2)nn2c(C)c(C(F)(F)F)nc12` [Example 27, N,3-Dimethyl-6-{2-[4-(2-oxopyrrolidin-1-yl)-1-phenyl-1H-imidazol-2-yl]ethyl}-2-(trifluoromethyl)imidazo[1,2-b]pyridazine-8-carb oxamide]: the pIC50 is 8.54. The same measure for `Cc1c(C(F)(F)F)nc2ccc(C#Cc3nc(N4CCCC4=O)cn3-c3ccccc3)nn12` [Example 25, 1-(2-{2-[3-methyl-2-(trifluoromethyl)imidazo[1,2-b]pyridazin-6-yl]ethynyl}-1-phenyl-1H-imidazol-4-yl) pyrrolidin-2-one]: 7.66.

Regarding `Cc1cnc(C)n2nc(CCc3nc(N4CCCC4=O)cn3CC(F)F)nc12` [Example 19, 1-[1-(2,2-difluoroethyl)-2-(2-{5,8-dimethyl-[1,2,4]triazolo[1,5-c]pyrimidin-2-yl}ethyl)-1H-imidazol-4-yl]pyrrolidin-2-one], the pIC50 was 7.57. `Cc1ncc(C)n2nc(C#Cc3nc(N4CCCC4=O)cn3C)nc12` [Example 15, 1-[2-(2-{4,7-Dimethyl-[1,2,4]triazolo[1,5-a]pyrazin-2-yl}ethynyl)-1-methyl-1H-imidazol-4-yl]pyrrolidin-2-one]: the negative logarithm of the IC50 (pIC50) was 7.54. The same measure for `Cc1ncc(C)n2nc(CCc3nc(N4CCCC4=O)cn3-c3ccccc3)nc12` [Example 2, 1-(2-(2-(5,8-dimethyl-[1,2,4]triazolo[1,5-a]pyrazin-2-yl)ethyl)-1-phenyl-1H-imidazol-4-yl)pyrrolidin-2-one]: 8.89; for `Cc1ncc(C)n2nc(CCc3nc(-n4ccccc4=O)cn3CC3CC3)nc12` [Example 4, 1-(1-(Cyclopropylmethyl)-2-(2-(5,8-dimethyl-[1,2,4]triazolo[1,5-a]pyrazin-2-yl)ethyl)-1H-imidazol-4-yl)pyridin-2(1H)-one]: 6.82; for `Cc1c(C(F)(F)F)nc2ccc(CCc3nc(N4CCCC4=O)cn3C)nn12` [Example 22, 1-(1-Methyl-2-{2-[3-methyl-2-(trifluoromethyl)imidazo[1,2-b]pyridazin-6-yl]ethyl}-1H-imidazol-4yl) pyrrolidin-2-one]: 6.93. The same measure for `Cc1ncc(C)n2nc(/C=C/c3nc(N4CCN(C)C4=O)cn3C)nc12` [Example 8, 2′-[(E)-2-(5,8-Dimethyl-[1,2,4]triazolo[1,5-a]pyrazin-2-yl)-vinyl]-3, 1′-dimethyl-4,5-dihydro-3H, 1′H-[1,4′]biimidazolyl-2-one]: 6.79; for `CNC(=O)c1cc(CCc2nc(N3CCCC3=O)cn2C)nn2c(C)c(C(F)(F)F)nc12` [Example 26]: 6.95; for `Cc1ncc(C)n2nc(CCc3nc(N4CCCC4=O)cn3CC(F)(F)F)nc12` [Example 13, 1-[2-(2-{4,7-Dimethyl-[1,2,4]triazolo[1,5-a]pyrazin-2-yl}ethyl)-1-(2,2,2-trifluoroethyl)-1H-imidazol-4-yl]pyrrolidin-2-one]: 7.44. Regarding `Cc1ncc(C)n2nc(/C=C/c3nc(N4CCCC4=O)cn3C3CC3)nc12` [Example 6, 1-[1-cyclopropyl-2-[(E)-2-(5,8-dimethyl-[1,2,4]triazolo[1,5-a]pyrazin-2-yl)ethenyl]imidazol-4-yl]pyrrolidin-2-one], the pIC50 was 7.09. The same measure for `Cc1cc(C)n2nc(CCc3nc(N4CCCC4=O)cn3C)nc2n1` [Example 21, 1-[2-(2-{5,7-dimethyl-[1,2,4]triazolo[1,5-a]pyrimidin-2-yl}ethyl)-1-methyl-1H-imidazol-4-yl]pyrrolidin-2-one]: 6.75.

Regarding `Cc1ncc(C)n2nc(CCc3nc(N4CCCC4=O)cn3C)nc12` [Example 11, 1-[2-(2-{4,7-Dimethyl-[1,2,4]triazolo[1,5-a]pyrazin-2-yl}ethyl)-1-methyl-1H-imidazol-4-yl]pyrrolidin-2-one], the pIC50 was 7.74. Turning to `Cc1ncc(C)n2nc(CCc3nc(N4CCCC4=O)cn3CC3CC3)nc12` [Example 12, 1-[1-(Cyclopropylmethyl)-2-(2-{4,7-dimethyl-[1,2,4]triazolo[1,5-a]pyrazin-2-yl}ethyl)-1H-imidazol-4-yl]pyrrolidin-2-one], the pIC50 was 7.77.

With `Cc1ncc(C)n2nc(CCc3nc(N4CCCC4=O)cn3C3CC3)nc12` [Example 7, 1-{1-Cyclopropyl-2-[2-(5,8-dimethyl-[1,2,4]triazolo[1,5-a]pyrazin-2-yl)-ethyl]-1H-imidazol-4-yl}-pyrrolidin-2-one], the pIC50 was 7.57. Consider `Cc1cnc(C)n2nc(CCc3nc(N4CCCC4=O)cn3CC(F)(F)F)nc12` [Example 18, 1-[2-(2-{5,8-dimethyl-[1,2,4]triazolo[1,5-c]pyrimidin-2-yl}ethyl)-1-(2,2,2-trifluoroethyl)-1H-imidazol-4-yl]pyrrolidin-2-one], for which the pIC50 was 6.77. As to `Cc1cnc(C)n2nc(CCc3nc(N4CCCC4=O)cn3CC3CC3)nc12` [Example 16, 1-[1-(Cyclopropylmethyl)-2-(2-{5,8-dimethyl-[1,2,4]triazolo[1,5-c]pyrimidin-2-yl}ethyl)-1H-imidazol-4-yl]pyrrolidin-2-one], the negative logarithm of the IC50 (pIC50) was 7.83.

Take `Cc1ncc(C)n2nc(CCc3nc(N4CCCC4=O)cn3CC(F)F)nc12` [Example 14, 1-[1-(2,2-difluoroethyl)-2-(2-{4,7-dimethyl-[1,2,4]triazolo[1,5-a]pyrazin-2-yl}ethyl)-1H-imidazol-4-yl]pyrrolidin-2-one]: the pIC50 is 7.33.

Turning to `Cc1c(C(F)(F)F)nc2ccc(C#Cc3nc(N4CCCC4=O)cn3C)nn12` [Example 24, 1-(1-Methyl-2-{2-[3-methyl-2-(trifluoromethyl)imidazo[1,2-b]pyridazin-6-yl]ethynyl}-1H-imidazol-4-yl)pyrrolidin-2-one], the pIC50 was 7.12.

These data come from patent publication US9586970B2, “Imidazole derivatives” (Hoffmann-La Roche Inc., priority 2014, dated 2017).
